Measured values as given in ChEMBL document CHEMBL3774345, “Synthesis of new diarylamides with pyrimidinyl pyridine scaffold and evaluation of their anti-proliferative effect on cancer cell lines” (Bioorg Med Chem Lett, 2016).

Experiments:
[1] = Cytotoxicity against human SW620 cells assessed as cell growth at 10^-4 M after 24 hrs by SRB assay; format: functional; settings: SW-620, 24 h, read-out: Activity
SN12C [2] = assay: Cytotoxicity against human SN12C cells after 24 hrs by SRB assay; format: functional
[3] = Cytotoxicity against human UO31 cells assessed as cell growth at 10^-7 M after 24 hrs by SRB assay; format: functional; settings: UO-31, 24 h, read-out: Activity
EKVX = assay: Cytotoxicity against human EKVX cells assessed as cell growth at 10^-4 M after 24 hrs by SRB assay; format: functional; settings: read-out: Activity
[4] = Cytotoxicity against human COLO205 cells assessed as cell growth at 10^-6 M after 24 hrs by SRB assay; format: functional; settings: COLO 205, 24 h, read-out: Activity
[5] = Cytotoxicity against human SF295 cells assessed as cell growth at 10^-4 M after 24 hrs by SRB assay; format: functional; settings: SF-295, 24 h, read-out: Activity
Malme-3M = assay: Cytotoxicity against human MALME-3M cells assessed as cell growth at 10^-7 M after 24 hrs by SRB assay; format: functional; settings: read-out: Activity
SN12C [6] = assay: Cytotoxicity against human SN12C cells assessed as cell growth at 10^-4 M after 24 hrs by SRB assay; format: functional; settings: read-out: Activity
SK-MEL-2 = assay: Cytotoxicity against human SK-MEL-2 cells assessed as cell growth at 10^-4 M after 24 hrs by SRB assay; format: functional; settings: SK-MEL-2, 24 h, read-out: Activity
[7] = Cytotoxicity against human IGROV1 cells assessed as cell growth at 10^-4 M after 24 hrs by SRB assay; format: functional; settings: IGROV-1, 24 h, read-out: Activity
SN12C [8] = assay: Cytotoxicity against human SN12C cells assessed as cell growth at 10^-7 M after 24 hrs by SRB assay; format: functional; settings: read-out: Activity
[9] = Cytotoxicity against human BT549 cells assessed as cell growth at 10^-5 M after 24 hrs by SRB assay; format: functional; settings: BT-549, 24 h, read-out: Activity
[10] = Cytotoxicity against human SNB19 cells assessed as cell growth at 10^-5 M after 24 hrs by SRB assay; format: functional; settings: SNB-19, 24 h, read-out: Activity
[11] = Cytotoxicity against human DU145 cells assessed as cell growth at 10^-5 M after 24 hrs by SRB assay; format: functional; settings: DU-145, 24 h, read-out: Activity
MDA-MB-231 = assay: Cytotoxicity against human MDA-MB-231 cells assessed as cell growth at 10^-4 M after 24 hrs by SRB assay; format: functional; settings: MDA-MB-231, 24 h, read-out: Activity
[12] = Cytotoxicity against human HCC2998 cells assessed as cell growth at 10^-8 M after 24 hrs by SRB assay; format: functional; settings: HCC 2998, 24 h, read-out: Activity
[13] = Cytotoxicity against human HL-60(TB) cells after 24 hrs by SRB assay; format: functional; settings: HL-60, 24 h
786-0 [14] = assay: Cytotoxicity against human 786-0 cells assessed as cell growth at 10^-8 M after 24 hrs by SRB assay; format: functional; settings: 786-0, 24 h, read-out: Activity
[15] = Cytotoxicity against human OVCAR3 cells assessed as cell growth at 10^-6 M after 24 hrs by SRB assay; format: functional; settings: OVCAR-3, 24 h, read-out: Activity
[16] = Cytotoxicity against human LOXIMVI cells assessed as cell growth at 10^-6 M after 24 hrs by SRB assay; format: functional; settings: LOX IMVI, read-out: Activity
[17] = Cytotoxicity against human COLO205 cells after 24 hrs by SRB assay; format: functional, cell-based; settings: COLO 205, 24 h
[18] = Cytotoxicity against human TK10 cells assessed as cell growth at 10^-8 M after 24 hrs by SRB assay; format: functional; settings: TK-10, 24 h, read-out: Activity
MDA-MB-435 = assay: Cytotoxicity against human MDA-MB-435 cells assessed as cell growth at 10^-6 M after 24 hrs by SRB assay; format: functional; settings: MDA-MB-435, 24 h, read-out: Activity
T47D = assay: Cytotoxicity against human T47D cells assessed as cell growth at 10^-8 M after 24 hrs by SRB assay; format: functional; settings: read-out: Activity
786-0 [19] = assay: Cytotoxicity against human 786-0 cells after 24 hrs by SRB assay; format: functional, cell-based; settings: 786-0, 24 h
[20] = Cytotoxicity against human DU145 cells after 24 hrs by SRB assay; format: functional; settings: DU-145, 24 h
[21] = Cytotoxicity against human TK10 cells assessed as cell growth at 10^-4 M after 24 hrs by SRB assay; format: functional; settings: TK-10, 24 h, read-out: Activity
[22] = Cytotoxicity against human SNB75 cells after 24 hrs by SRB assay; format: functional, cell-based; settings: SNB-75, 24 h
M14 = assay: Cytotoxicity against human M14 cells assessed as cell growth at 10^-4 M after 24 hrs by SRB assay; format: functional; settings: M14, 24 h, read-out: Activity
HT-29 = assay: Cytotoxicity against human HT-29 cells assessed as cell growth at 10^-5 M after 24 hrs by SRB assay; format: functional; settings: HT-29, 24 h, read-out: Activity
[23] = Cytotoxicity against human UO31 cells after 24 hrs by SRB assay; format: functional, cell-based; settings: UO-31, 24 h
[24] = Cytotoxicity against human PC3 cells assessed as cell growth at 10^-6 M after 24 hrs by SRB assay; format: functional; settings: PC-3, 24 h, read-out: Activity
[25] = Cytotoxicity against human UACC257 cells assessed as cell growth at 10^-4 M after 24 hrs by SRB assay; format: functional; settings: UACC-257, 24 h, read-out: Activity
[26] = read-out: LC50 (the source's name)
[27] = read-out: pLC50 (the source's name) (converted)

O=C(Nc1cc(-c2cccnc2)nc(NCCCN2CCOCC2)n1)c1cc(Br)cc(C(F)(F)F)c1 gave a growth at 100 µM [1] of -87%, a GI50 (SN12C [2]; read-out: GI50) of 7.74 µM and a CC50 (SN12C [2]; [26]) of 53.5 µM. For the same compound, the TGI (SN12C [2]; read-out: TGI) was 21.8 µM, the GI50 (SN12C [2]; read-out: pGI50 (converted)) was 7.76 µM and the CC50 (SN12C [2]; [27]) was 53.7 µM. For the same compound, the TGI (SN12C [2]; read-out: pTGI (converted)) was 22.4 µM, the growth at 0.1 µM [3] was 90% and the growth at 100 µM (EKVX) was -89%. For the same compound, the growth at 1 µM [4] was 92%, the growth at 100 µM [5] was -92% and the growth at 0.1 µM (Malme-3M) was 95%. For the same compound, the growth at 100 µM (SN12C [6]) was -85%, the growth at 100 µM (SK-MEL-2) was -89% and the growth at 100 µM [7] was -72%. For the same compound, the growth at 0.1 µM (SN12C [8]) was 98%, the growth at 10 µM [9] was 19% and the growth at 10 µM [10] was -33%. For the same compound, the growth at 10 µM [11] was 39%, the growth at 100 µM (MDA-MB-231) was -84% and the growth at 0.01 µM [12] was 96%. It also gave a GI50 ([13]; read-out: GI50) of 2.15 µM, a CC50 [13, 26] of 90.1 µM and a TGI ([13]; read-out: TGI) of 5.86 µM. For the same compound, the GI50 ([13]; read-out: pGI50 (converted)) was 2.14 µM, the CC50 [13, 27] was 89.1 µM and the TGI ([13]; read-out: pTGI (converted)) was 5.89 µM. The growth at 0.01 µM (786-0 [14]) was 93%, the growth at 1 µM [15] was 100% and the growth at 1 µM [16] was 88%. The GI50 ([17]; read-out: GI50) was 1.77 µM, the CC50 [17, 26] was 6.79 µM and the TGI ([17]; read-out: TGI) was 3.47 µM. For the same compound, the GI50 ([17]; read-out: pGI50 (converted)) was 1.78 µM, the CC50 [17, 27] was 6.76 µM and the TGI ([17]; read-out: pTGI (converted)) was 3.47 µM. The growth at 0.01 µM [18] was 91%, the growth at 1 µM (MDA-MB-435) was 90% and the growth at 0.01 µM (T47D) was 91%. For the same compound, the IC50 (786-0 [19]) was 1.55 µM, the GI50 (786-0 [19]; read-out: GI50) was 1.55 µM and the CC50 (786-0 [19]; [26]) was 6.47 µM. For the same compound, the TGI (786-0 [19]; read-out: TGI) was 3.17 µM, the GI50 (786-0 [19]; read-out: pGI50 (converted)) was 1.55 µM and the CC50 (786-0 [19]; [27]) was 6.46 µM. It also gave a TGI (786-0 [19]; read-out: pTGI (converted)) of 3.16 µM, a GI50 ([20]; read-out: GI50) of 6.7 µM and a CC50 [20, 26] of 43.7 µM. The TGI ([20]; read-out: TGI) was 19.1 µM, the GI50 ([20]; read-out: pGI50 (converted)) was 6.76 µM and the CC50 [20, 27] was 43.7 µM. For the same compound, the TGI ([20]; read-out: pTGI (converted)) was 19.1 µM, the growth at 100 µM [21] was -98% and the IC50 [22] was 1.52 µM. For the same compound, the GI50 ([22]; read-out: GI50) was 1.52 µM, the CC50 [22, 26] was 8.46 µM and the TGI ([22]; read-out: TGI) was 3.59 µM. It also gave a GI50 ([22]; read-out: pGI50 (converted)) of 1.51 µM, a CC50 [22, 27] of 8.51 µM and a TGI ([22]; read-out: pTGI (converted)) of 3.55 µM. For the same compound, the growth at 100 µM (M14) was -71%, the growth at 10 µM (HT-29) was -41% and the IC50 [23] was 1.4 µM. The GI50 ([23]; read-out: GI50) was 1.4 µM, the CC50 [23, 26] was 8.19 µM and the TGI ([23]; read-out: TGI) was 3.39 µM. For the same compound, the GI50 ([23]; read-out: pGI50 (converted)) was 1.41 µM, the CC50 [23, 27] was 8.13 µM and the TGI ([23]; read-out: pTGI (converted)) was 3.39 µM. For the same compound, the growth at 1 µM [24] was 92% and the growth at 100 µM [25] was -93%.
